Reference: patent US20260035355A1, “COMPOUND, PHARMACEUTICAL COMPOSITION COMPRISING SAME, AND USE THEREOF” (SHENZHEN ZHONGGE BIOLOGICAL TECHNOLOGY CO., LTD., priority 2022, published 2026)

Columns and labels:
[1] = Evaluation of cell membrane permeability; type: in vitro ADME; settings: 10 μM, 120 minutes; for efflux ratio at 120 min, 10 μM: read-out: Efflux Ratio (Papp B to A/Papp A to B); for Papp A→B at 120 min, 10 μM / Papp B→A at 120 min, 10 μM: transport buffer (HBSS+BSA), 37° C.
Method: (§1) The test compounds were diluted from 10 mM stock solutions to a concentration of 10 μM using the transport buffer (HBSS+BSA) and applied to the apical or basolateral side of the cell monolayer. After the incubation at 37° C., 5% CO2 and 95% relative humidity for 120 minutes, the permeability of the test compounds in the A to B direction or the B to A direction was dually determined. In addition, the efflux ratio (Papp B to A/Papp A to B) of each compound was determined. The test substances and reference substances were quantitatively analyzed by the LC-MS/MS method based on the analyte/IS peak area ratio.

[2] = target: T1, eIF2B (Homo sapiens, UniProt P49770+Q9UI10); assay: ATF4-Luc assay (ATF4 luciferase reporter, thapsigargin-induced stress); type: cell-based; settings: HEK293T/17-ATF4 uORF-Luc-Puro monoclonal cells, 50 nM thapsigargin, incubated for 6 hours
T1 construct: endogenous in cells; host or cells: HEK293T/17-ATF4 uORF-Luc-Puro monoclonal cells
T1 sequence (P49770 whole entry): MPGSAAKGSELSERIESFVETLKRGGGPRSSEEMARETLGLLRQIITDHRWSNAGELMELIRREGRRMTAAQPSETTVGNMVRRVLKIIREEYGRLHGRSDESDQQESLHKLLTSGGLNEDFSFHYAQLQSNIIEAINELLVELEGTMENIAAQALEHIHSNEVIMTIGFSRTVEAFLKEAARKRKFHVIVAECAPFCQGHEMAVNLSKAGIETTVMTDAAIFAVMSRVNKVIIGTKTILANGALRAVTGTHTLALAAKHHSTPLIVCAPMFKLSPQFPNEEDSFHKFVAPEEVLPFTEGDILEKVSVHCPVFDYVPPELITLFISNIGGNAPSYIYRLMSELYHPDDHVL
T1 sequence (Q9UI10 whole entry): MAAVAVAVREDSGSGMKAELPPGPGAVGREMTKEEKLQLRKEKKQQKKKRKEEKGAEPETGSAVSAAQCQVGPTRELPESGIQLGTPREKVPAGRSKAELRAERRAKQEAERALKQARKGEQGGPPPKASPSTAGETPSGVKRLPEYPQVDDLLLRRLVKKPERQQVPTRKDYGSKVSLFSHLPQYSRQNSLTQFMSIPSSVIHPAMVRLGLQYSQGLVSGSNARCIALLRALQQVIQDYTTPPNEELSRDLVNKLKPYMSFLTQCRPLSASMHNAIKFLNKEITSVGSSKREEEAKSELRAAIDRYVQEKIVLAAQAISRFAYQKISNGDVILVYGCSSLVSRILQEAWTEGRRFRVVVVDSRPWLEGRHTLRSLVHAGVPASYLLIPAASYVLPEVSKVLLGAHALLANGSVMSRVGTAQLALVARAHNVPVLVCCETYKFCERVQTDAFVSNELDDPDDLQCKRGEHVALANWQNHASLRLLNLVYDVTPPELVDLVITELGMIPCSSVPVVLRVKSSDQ
T1 sequence (Q14232 whole entry partner): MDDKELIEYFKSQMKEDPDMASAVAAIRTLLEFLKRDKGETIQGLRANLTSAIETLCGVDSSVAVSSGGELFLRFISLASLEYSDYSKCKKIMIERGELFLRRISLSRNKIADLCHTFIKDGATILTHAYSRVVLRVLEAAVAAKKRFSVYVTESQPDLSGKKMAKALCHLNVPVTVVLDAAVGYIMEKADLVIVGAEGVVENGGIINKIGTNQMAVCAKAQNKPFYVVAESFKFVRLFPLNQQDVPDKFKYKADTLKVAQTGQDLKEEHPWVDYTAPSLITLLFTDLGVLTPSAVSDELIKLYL
T1 sequence (Q9NR50 whole entry partner): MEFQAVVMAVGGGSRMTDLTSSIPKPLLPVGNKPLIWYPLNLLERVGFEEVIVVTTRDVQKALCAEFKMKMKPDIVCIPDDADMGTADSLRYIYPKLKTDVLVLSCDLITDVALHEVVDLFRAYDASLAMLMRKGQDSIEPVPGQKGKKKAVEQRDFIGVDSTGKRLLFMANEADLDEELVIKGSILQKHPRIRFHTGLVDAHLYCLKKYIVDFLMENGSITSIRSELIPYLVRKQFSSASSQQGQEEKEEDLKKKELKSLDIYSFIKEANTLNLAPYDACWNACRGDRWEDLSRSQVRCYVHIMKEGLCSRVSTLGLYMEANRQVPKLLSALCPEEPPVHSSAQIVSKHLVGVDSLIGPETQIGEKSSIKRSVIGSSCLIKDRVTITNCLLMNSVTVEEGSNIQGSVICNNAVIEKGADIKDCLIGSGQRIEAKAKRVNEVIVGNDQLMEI
T1 sequence (Q13144 whole entry partner): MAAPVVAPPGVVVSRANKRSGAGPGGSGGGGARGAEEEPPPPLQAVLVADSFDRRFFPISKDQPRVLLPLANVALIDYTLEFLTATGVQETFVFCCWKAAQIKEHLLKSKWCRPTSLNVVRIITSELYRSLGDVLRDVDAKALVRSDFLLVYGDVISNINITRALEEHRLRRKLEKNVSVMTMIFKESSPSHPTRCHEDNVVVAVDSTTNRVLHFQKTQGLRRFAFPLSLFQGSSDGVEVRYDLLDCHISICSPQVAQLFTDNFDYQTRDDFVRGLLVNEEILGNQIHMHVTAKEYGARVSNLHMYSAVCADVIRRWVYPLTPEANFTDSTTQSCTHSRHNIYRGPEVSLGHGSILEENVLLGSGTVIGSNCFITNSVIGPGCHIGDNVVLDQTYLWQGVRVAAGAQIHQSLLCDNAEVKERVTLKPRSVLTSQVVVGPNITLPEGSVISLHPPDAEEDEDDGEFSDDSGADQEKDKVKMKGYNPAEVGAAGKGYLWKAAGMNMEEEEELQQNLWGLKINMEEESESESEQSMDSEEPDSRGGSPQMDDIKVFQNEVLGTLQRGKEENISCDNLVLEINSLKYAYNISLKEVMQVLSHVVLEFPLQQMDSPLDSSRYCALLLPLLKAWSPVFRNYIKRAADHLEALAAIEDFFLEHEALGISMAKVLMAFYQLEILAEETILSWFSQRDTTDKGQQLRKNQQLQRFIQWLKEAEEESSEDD
Description: The ATF4 luciferase reporter plasmid consists of two parts, i.e., the 5′ untranslated region sequence of the ATF4 gene and the luciferase coding sequence. Specifically, the ATF4 5′ untranslated region sequence (NCBI database number BC022088.2) containing two upstream open reading frames (uORFs), and the firefly luciferase encoding gene were cloned into the pLVX-Puro vector (YouBio, VT1465). The packaging plasmids of lentivirus were psPAX2 (YouBio, VT1444) and pMD2.G (YouBio, VT1443). 650,000 HEK293T cells were seeded per well of a 6-well plate and cultured overnight in a 5% CO2 incubator. The cells were transfected with the packaged lentivirus for 48 hours and then centrifuged, and the supernatant was discarded. The medium was replaced and changed to the DMEM complete medium containing 0.8 μg/ml puromycin, and the cells were resuspended and then cultured. After one week of cell screening with puromycin, the surviving cells were HEK293T-ATF4 uORF-Luc-Puro polyclonal cells. 200 polyclonal cells were taken and subjected to limiting gradient dilution by using a 96-well plate, so as to obtain monoclonal cells.
The specific method for screening the monoclonal cells involves: placing the 200 polyclonal cells in well A1 of the 96-well plate; step one: performing gradient dilution from columns A1 to H1 at a ratio of 1:2; step two: performing gradient dilution from rows A to H, with each row from wells 1 to 12 at a ratio of 1:2; marking the wells with a theoretical cell number less than 0.5 and observing one by one under a microscope; marking the wells with only one cell; and culturing the cells for two weeks to obtain the monoclonal cells.
By using this cell line and the cold fluorescence readings, the translational regulation of ATF4 can be detected, and the activity of eIF2B activated by the compounds can be tested.
The specific experimental process is as follows: 6000 HEK293T/17-ATF4 uORF-Luc-Puro monoclonal cells were plated in a 384-well plate and allowed to adhere overnight. The test compounds were dissolved in DMSO and diluted to 10 different concentrations, which were respectively added together with 50 nM thapsigargin to the cell culture medium and incubated for 6 hours, wherein the thapsigargin was used to cause cellular stress and upregulate the protein translation of ATF4. Six hours after the addition, the cells were lysed using the One-Glo Luciferase Assay Kit (Promega #E6120), and then the cold fluorescence values were read using the LUM program of the EnVision 2104 plate reader.
EC50 was calculated based on the fluorescence values at 9 concentrations (0.1 nM, 0.3 nM, 1.0 nM, 3.0 nM, 10.0 nM, 30.0 nM, 100.0 nM, 300.0 nM and 1000.0 nM) of each compound and recorded in Table 1.
The ATF4 reporter expression was calculated as follows:
ATF4 reporter expression=(ave_sample-ave_vc)/(ave_pc-ave_vc)
where ave_vc represents the average signal value of negative controls, ave_pc represents the average signal value of positive controls, and ave_sample represents the average signal value of samples.
The dose-response curves were fitted, and the EC50 values were calculated.
The nonlinear regression log(inhibitor) vs. response—variable slope (four parameters) method of GraphPad 9 software was used to fit the corresponding relationship between the ATF4 reporter expression and the compound concentration.
The X-axis represents the log value of the compound concentration; and the Y-axis represents the ATF4 reporter expression.

[3] = test system: cell monolayer; assay: Evaluation of cell membrane permeability; type: in vitro ADME
Method: as §1

[4] = Pharmacokinetic evaluation in mice; type: in vivo
Method: The test compounds were dissolved in vehicles to prepare clear solutions or homogeneous suspensions. Three mice were placed in each group and received an intravenous (IV) administration via the tail vein at 1 mg/kg and an oral (PO) administration at 30 mg/kg. Blood samples were collected at 0.083 h, 0.25 h, 0.5 h, 1 h, 2 h, 4 h, 8 h, and 24 h after the intravenous administration, and at 0.25 h, 0.5 h, 1 h, 2 h, 4 h, 6 h, 8 h, and 24 h after the oral administration. Plasma samples were centrifuged, and the supernatant was collected to prepare samples, which were then quantitatively analyzed by LC/MS/MS.

Compound	EC50 [2] [nM]	other results
C[C@H]1O[C@@H](O[C@H]2[C@@H](O)C[C@H](O[C@H]3[C@@H](O)C[C@H](O[C@H]4CC[C@@]5(C)[C@H](CC[C@@H]6[C@@H]5C[C@@H](O)[C@]5(C)[C@@H](C7=CC(=O)OC7)CC[C@]65O)C4)O[C@@H]3C)O[C@@H]2C)C[C@H](O)[C@@H]1O [Digoxin]	–	efflux ratio at 120 min, 10 μM [1]: 44.7; Papp A→B at 120 min, 10 μM [1]: 0.25 ×10⁻⁶ cm/s; Papp B→A at 120 min, 10 μM [1]: 11.2 ×10⁻⁶ cm/s
O=C(COc1ccc(Cl)c(F)c1)NC1CC12CCN(C(=O)c1cnc(C(F)F)cn1)CC2 (stereo not drawn) [I-1]	> 100	–
O=C(COc1ccc(Cl)c(F)c1)NC1CC12CCN(C(=O)c1cc3cc(Cl)ccc3o1)CC2 (stereo not drawn) [I-2]	> 100	–
O=C(COc1ccc(Cl)c(F)c1)NC1CC12CCN(C(=O)[C@H]1CNc3cc(Cl)ccc3O1)CC2 (stereo partly drawn) [I-3]	> 100	–
CN1C[C@H](C(=O)N2CCC3(CC2)CC3NC(=O)COc2ccc(Cl)c(F)c2)Oc2ccc(Cl)cc21 (stereo partly drawn) [I-4]	> 100	–
O=C(COc1ccc(Cl)c(F)c1)NC1CC12CCN(NC(=O)COc1ccc(Cl)c(F)c1)CC2 (stereo not drawn) [I-5]	> 100	–
O=C(COc1ccc(Cl)c(F)c1)NC1CC12CCN(NC(=O)c1cc3cc(Cl)ccc3o1)CC2 (stereo not drawn) [I-6]	> 100	–
O=C(COc1ccc(Cl)c(F)c1)NC1CC12CCN(NC(=O)[C@H]1CNc3cc(Cl)ccc3O1)CC2 (stereo partly drawn) [I-7]	> 100	–
CN1C[C@H](C(=O)NN2CCC3(CC2)CC3NC(=O)COc2ccc(Cl)c(F)c2)Oc2ccc(Cl)cc21 (stereo partly drawn) [I-8]	> 100	–
O=C(NC1CC12CCN(C(=O)c1cc3cc(Cl)ccc3o1)CC2)c1cc2cc(Cl)ccc2o1 (stereo not drawn) [I-9]	> 100	–
O=C(NC1CC12CCN(NC(=O)c1cc3cc(Cl)ccc3o1)CC2)c1cc2cc(Cl)ccc2o1 (stereo not drawn) [I-10]	10 to 100	–
O=C(COc1ccc(Cl)c(F)c1)NC1COC2(C1)CN(C(=O)c1cnc(C(F)F)cn1)C2 (stereo not drawn) [II-10]	> 100	–
O=C(COc1ccc(Cl)c(F)c1)NC1COC2(C1)CN(C(=O)COc1ccc(Cl)c(F)c1)C2 (stereo not drawn) [II-11]	> 100	–
O=C(COc1ccc(Cl)c(F)c1)NC1COC2(C1)CN(C(=O)c1cc3cc(Cl)ccc3o1)C2 (stereo not drawn) [II-12]	10 to 100	–
O=C(COc1ccc(Cl)c(F)c1)NC1COC2(C1)CN(C(=O)[C@H]1CNc3cc(Cl)ccc3O1)C2 (stereo partly drawn) [II-13]	> 100	–
CN1C[C@H](C(=O)N2CC3(CC(NC(=O)COc4ccc(Cl)c(F)c4)CO3)C2)Oc2ccc(Cl)cc21 (stereo partly drawn) [II-14]	> 100	–
O=C(COc1ccc(Cl)c(F)c1)NC1CC2(C1)CC(c1nnc(N3CC(OC(F)(F)F)C3)o1)C2 (stereo not drawn) [III-1]	< 10	efflux ratio at 120 min, 10 μM [1]: 1.05; Papp A→B at 120 min, 10 μM [1]: 17.7 ×10⁻⁶ cm/s; Papp B→A at 120 min, 10 μM [1]: 18.6 ×10⁻⁶ cm/s; P-glycoprotein substrate (in words) [3]: not P-glycoprotein substrates; cell membrane permeability (in words) [3]: good cell membrane permeability; pharmacokinetic properties in mice (in words) ([4]; mouse, in vivo): excellent pharmacokinetic properties in mice; AUC(0-inf) ([4]; plasma, mouse IV 1 mg/kg): 2230 ng·h/mL; C0 ([4]; plasma, mouse IV 1 mg/kg): 1340 ng/mL; clearance ([4]; plasma, mouse IV 1 mg/kg): 7.5 mL/min/kg; half-life ([4]; plasma, mouse IV 1 mg/kg): 2.07 h; Vd ([4]; plasma, mouse IV 1 mg/kg, read-out: Vss): 1.18 L/kg; AUC(0-inf) ([4]; plasma, mouse PO 30 mg/kg): 111000 ng·h/mL; Cmax ([4]; plasma, mouse PO 30 mg/kg): 21500 ng/mL; Tmax ([4]; plasma, mouse PO 30 mg/kg): 1.33 h; bioavailability ([4]; plasma, mouse PO 30 mg/kg): 177%; half-life ([4]; plasma, mouse PO 30 mg/kg): 1.93 h
O=C(COc1ccc(Cl)c(F)c1)NC1CC2(C1)CC(NC(=O)COc1ccc(Cl)c(F)c1)C2 (stereo not drawn) [III-10]	> 100	–
O=C(COc1ccc(Cl)c(F)c1)NC1CC2(C1)CC(NC(=O)c1cnc(C(F)F)cn1)C2 (stereo not drawn) [III-11]	> 100	–

Compound	EC50 [2] [nM]	other results
CN1CC(C(=O)NC2CC3(CC(NC(=O)COc4ccc(Cl)c(F)c4)C3)C2)Oc2ccc(Cl)cc21 (stereo not drawn) [III-12]	> 100	–
O=C(COc1ccc(Cl)c(F)c1)NC1CC2(C1)CC(NC(=O)C1CNc3cc(Cl)ccc3O1)C2 (stereo not drawn) [III-13]	10 to 100	–
O=C(COc1ccc(Cl)c(F)c1)NC1CC2(CCN(c3nnc(N4CC(OC(F)(F)F)C4)o3)CC2)C1 [IV-1]	10 to 100	–
O=C(COc1ccc(Cl)c(F)c1)NC1CC2(CCN(C(=O)COc3ccc(Cl)c(F)c3)CC2)C1 [IV-11]	10 to 100	–
O=C(COc1ccc(Cl)c(F)c1)NC1CC2(CCN(C(=O)c3cnc(C(F)F)cn3)CC2)C1 [IV-12]	> 100	–
O=C(COc1ccc(Cl)c(F)c1)NC1CC2(CCN(C(=O)[C@H]3CNc4cc(Cl)ccc4O3)CC2)C1 [IV-13]	< 10	–
O=C(COc1ccc(Cl)c(F)c1)NC1CC2(CCN(c3nnc(-c4ccc(Cl)cc4)o3)CC2)C1 [IV-14]	10 to 100	–
CN1C[C@H](C(=O)N2CCC3(CC2)CC(NC(=O)COc2ccc(Cl)c(F)c2)C3)Oc2ccc(Cl)cc21 [IV-15]	> 100	–
O=C(CO[C@H]1C[C@@H](OC(F)(F)F)C1)NC1CC2(CCN(C(=O)c3cc4cc(Cl)ccc4o3)CC2)C1 [IV-16]	> 100	–
O=C(CO[C@H]1C[C@@H](OC(F)(F)F)C1)NC1CC2(CCN(C(=O)COc3ccc(Cl)c(F)c3)CC2)C1 [IV-17]	> 100	–
O=C(NC1CC2(CCN(C(=O)[C@@H]3CNc4cc(Cl)ccc4O3)CC2)C1)[C@H]1CNc2cc(Cl)ccc2O1 [IV-18]	10 to 100	–
O=C(COc1ccc(Cl)c(F)c1)NC1CC2(CCN(C(=O)c3cc4cc(Cl)ccc4o3)CC2)C1 [IV-19]	10 to 100	–
O=C(NC1CC2(CCN(C(=O)c3cc4cc(Cl)ccc4o3)CC2)C1)c1cc2cc(Cl)ccc2o1 [IV-20]	< 10	–
CC(C)NCC(O)COc1cccc2ccccc12 (stereo not drawn) [Propranolol]	–	Papp A→B at 120 min, 10 μM [1]: 32.4 ×10⁻⁶ cm/s; Papp B→A at 120 min, 10 μM [1]: 20.1 ×10⁻⁶ cm/s
O=C(COc1ccc(Cl)c(F)c1)NC1CCC2(CC1)CN(C(=O)COc1ccc(Cl)c(F)c1)C2 [V-10]	10 to 100	–
O=C(COc1ccc(Cl)c(F)c1)NC1CCC2(CC1)CN(C(=O)c1cnc(C(F)F)cn1)C2 [V-11]	> 100	–
O=C(COc1ccc(Cl)c(F)c1)NC1CCC2(CC1)CN(C(=O)C1CNc3cc(Cl)ccc3O1)C2 (stereo not drawn) [V-12]	> 100	–
O=C(COc1ccc(Cl)c(F)c1)NC1CC2(CCC(c3nnc(N4CC(OC(F)(F)F)C4)o3)CC2)C1 (stereo not drawn) [VI-1]	10 to 100	–
O=C(COc1ccc(Cl)c(F)c1)NC1CCC(c2nnc(N3CC(OC(F)(F)F)C3)o2)C2(CC2)C1 (stereo not drawn) [VIII-1]	< 10	–
